Source: patent EP0136831A2, “Azahomoerythromycin B derivatives and intermediates thereof” (PFIZER INC., priority 1983, dated 1985)
≈ marks a conversion by molar mass, not a printed value. Read-outs that look alike come from different tables or passages of the source.

Columns and labels:
[1] = tested on: Serr. mar.; test: MIC in brain heart infusion (BHI) broth; format: cell-based; settings: strain 017
Source text: (§1) Generally twelve 2 fold dilutions of the test compound. are employed, with initial concentration of the test drug being in the range of 50 to 200 mcg/ml. The susceptibility (MIC) of the test organism is accepted as the lowest concentration of compound capable of producing complete inhibition of growth as judged by the naked eye.

[2] = tested on: Past. mult.; test: MIC in brain heart infusion (BHI) broth; format: cell-based; settings: strain 001
Source text: as §1

[3] = tested on: Strep. pyog.; test: MIC in brain heart infusion (BHI) broth; format: cell-based; settings: strain 203
Source text: as §1

[4] = tested on: Staph. epi; test: MIC in brain heart infusion (BHI) broth; format: cell-based; settings: strain 111
Source text: as §1

[5] = tested on: Ent. cloac.; test: MIC in brain heart infusion (BHI) broth; format: cell-based; settings: strain 009
Source text: as §1

[6] = tested on: Staph. aur.; test: MIC in brain heart infusion (BHI) broth; format: cell-based
Source text: as §1

[7] = tested on: Strep. faec.; test: MIC in brain heart infusion (BHI) broth; format: cell-based; settings: strain 006
Source text: as §1

[8] = tested on: Neiss. sic.; test: MIC in brain heart infusion (BHI) broth; format: cell-based; settings: strain 000
Source text: as §1

[9] = tested on: Kleb. oxy.; test: MIC in brain heart infusion (BHI) broth; format: cell-based; settings: strain 024
Source text: as §1

[10] = tested on: Prov. strua.; test: MIC in brain heart infusion (BHI) broth; format: cell-based; settings: strain 013
Source text: as §1

[11] = tested on: H. influ.; test: MIC in brain heart infusion (BHI) broth; format: cell-based
Source text: as §1

[12] = tested on: E. coli; test: MIC in brain heart infusion (BHI) broth; format: cell-based; settings: Escherichia coli
[13] = tested on: Kleb. pn.; test: MIC in brain heart infusion (BHI) broth; format: cell-based; settings: for MIC: strain 009
[14] = tested on: Ent. aerog.; test: MIC in brain heart infusion (BHI) broth; format: cell-based; settings: strain 040
[15] = Microbiological (bioassay) determination of serum levels after oral dosage; format: in vivo; settings: mice
Description: Additionally, the compounds (II) and (VI) are tested in vivo by the well-known mouse protection test, or by a microbiological (bioassay) determination of serum levels in a variety of mammals (e.g., mouse, rat, dog).

[16] = strain 036, read-out: MIC Values
[17] = strain 038, read-out: MIC Values
[18] = strain 042, read-out: MIC Values
[19] = strain 051, read-out: MIC Values
[20] = strain 073, read-out: MIC Values
[21] = strain 078, read-out: MIC Values
[22] = strain 081, read-out: MIC Values

| Structure (SMILES) | MIC [1] [µg/mL] | MIC [2] [µg/mL] | MIC [3] [µg/mL] | MIC [4] [µg/mL] | MIC [5] [µg/mL] | MIC ([6]; strain 005) [µg/mL] | MIC ([6]; strain 052) [µg/mL] | MIC ([6]; strain 400) [µg/mL] | MIC [7] [µg/mL] | MIC [9] [µg/mL] | MIC [10] [µg/mL] | MIC ([12]; strain 125) [µg/mL] | MIC ([12]; strain 129) [µg/mL] | MIC ([12]; strain 266) [µg/mL] | MIC ([12]; strain 470) [µg/mL] | MIC [13] [µg/mL] | MIC [14] [µg/mL] | MIC [11, 16] [µg/mL] | MIC [11, 17] [µg/mL] | MIC [11, 18] [µg/mL] | also measured |
| --- | --- | --- | --- | --- | --- | --- | --- | --- | --- | --- | --- | --- | --- | --- | --- | --- | --- | --- | --- | --- | --- |
| CC[C@H]1OC(=O)[C@H](C)[C@@H](O[C@H]2C[C@@](C)(OC)[C@@H](O)[C@H](C)O2)[C@H](C)[C@@H](O[C@@H]2O[C@H](C)C[C@H](N(C)C)[C@H]2O)[C@](C)(O)C[C@@H](C)C(=O)[C@H](C)[C@@H](O)[C@]1(C)O [(1), Erythromycin A] | > 50 | 0.78 (≈ 1.06 µM) | 0.025 (≈ 0.0341 µM) | 0.05 (≈ 0.0681 µM) | > 50 | 0.05 (≈ 0.0681 µM) | 0.1 (≈ 0.136 µM) | 6.25 (≈ 8.52 µM) | 0.39 (≈ 0.531 µM) | > 50 | > 50 | > 50 | > 50 | > 50 | 1.56 (≈ 2.13 µM) | > 50 | > 50 |  |  |  | MIC [8]: 3.12 µg/mL (≈ 4.25 µM); MIC ([11]; read-out: MIC Values, strain 012): 3.12 µg/mL (≈ 4.25 µM); MIC ([11]; read-out: MIC Values, strain 036): 3.12 µg/mL (≈ 4.25 µM); MIC ([11]; read-out: MIC Values, strain 038): 1.56 µg/mL (≈ 2.13 µM); MIC ([11]; read-out: MIC Values, strain 042): 3.12 µg/mL (≈ 4.25 µM); MIC ([11]; read-out: MIC Values, strain 051): 3.12 µg/mL (≈ 4.25 µM); MIC ([11]; read-out: MIC Values, strain 073): 3.12 µg/mL (≈ 4.25 µM); MIC ([11]; read-out: MIC Values, strain 078): 1.56 µg/mL (≈ 2.13 µM); MIC ([11]; read-out: MIC Values, strain 081): 3.12 µg/mL (≈ 4.25 µM) |
| CC[C@H]1OC(=O)[C@H](C)[C@@H](O[C@H]2C[C@@](C)(OC)[C@@H](O)[C@H](C)O2)[C@H](C)[C@@H](O[C@@H]2O[C@H](C)C[C@H](N(C)C)[C@H]2O)[C@](C)(O)C[C@@H](C)CN(C)[C@H](C)[C@@H](O)[C@]1(C)O [(2), 9-Deoxo-9a-methyl-9a-aza-9a-homoerythromycin A] |  | 0.1 (≈ 0.134 µM) | 0.025 (≈ 0.0334 µM) | 0.1 (≈ 0.134 µM) | 25 (≈ 33.4 µM) | 0.2 (≈ 0.267 µM) | 0.39 (≈ 0.521 µM) | 25 (≈ 33.4 µM) | 1.56 (≈ 2.08 µM) | 25 (≈ 33.4 µM) | 50 (≈ 66.8 µM) |  | 6.25 (≈ 8.34 µM) | 6.25 (≈ 8.34 µM) | 0.78 (≈ 1.04 µM) |  |  | 0.78 (≈ 1.04 µM) | 0.78 (≈ 1.04 µM) | 0.78 (≈ 1.04 µM) | MIC [11, 19]: 1.56 µg/mL (≈ 2.08 µM); MIC [11, 20]: 0.78 µg/mL (≈ 1.04 µM); MIC [11, 21]: 0.39 µg/mL (≈ 0.521 µM); MIC [11, 22]: 0.78 µg/mL (≈ 1.04 µM) |
| CC[C@H]1OC(=O)[C@H](C)[C@@H](O[C@H]2C[C@@](C)(OC)[C@@H](O)[C@H](C)O2)[C@H](C)[C@@H](O[C@@H]2O[C@H](C)C[C@H](N(C)C)[C@H]2O)[C@](C)(O)C[C@@H](C)CN(C)[C@H](C)[C@@H](O)[C@H]1C [compound (II), 9-Deoxo-9a-methyl-9a-aza-9a-homoerythromycin B] | > 50 | 0.1 (≈ 0.136 µM) | 0.025 (≈ 0.0341 µM) | 0.2 (≈ 0.273 µM) | > 50 | 0.39 (≈ 0.532 µM) | 0.39 (≈ 0.532 µM) | > 50 | 1.56 (≈ 2.13 µM) | 50 (≈ 68.2 µM) | > 50 | 50 (≈ 68.2 µM) | 25 (≈ 34.1 µM) | 25 (≈ 34.1 µM) | 0.39 (≈ 0.532 µM) | 50 (≈ 68.2 µM) | > 50 | 3.12 (≈ 4.26 µM) | 3.12 (≈ 4.26 µM) | 1.56 (≈ 2.13 µM) | MIC ([11]; strain 012, read-out: MIC Values): 1.56 µg/mL (≈ 2.13 µM); MIC [11, 19]: 3.12 µg/mL (≈ 4.26 µM); MIC [11, 20]: 0.2 µg/mL (≈ 0.273 µM); MIC [11, 21]: 0.78 µg/mL (≈ 1.06 µM); MIC [11, 22]: 1.56 µg/mL (≈ 2.13 µM); MIC Values ([13]; strain 031): 50 µg/mL (≈ 68.2 µM); absorption after oral dosage [15]: exceptionally well absorbed; serum levels [15]: exceptionally high and long lasting |
